Key:
pSTAT3 (pY705-STAT3) = target: T1, pSTAT3 (pY705-STAT3) (Homo sapiens, UniProt P40763); assay: MSD-pSTAT-PBMC Assay (pSTAT3, IL-6 stimulated); format: cell-based; conditions: PBMC, compound 3 hrs, then 10 ng/mL IL-6 for 10 min; MSD pY705-STAT3; read-out: pSTAT3
T1 construct: host or cells: cryopreserved PBMC
How it was run: (§1)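 Human PBMCs (50,000 cells/well for STAT3, 25,000 for STAT6) treated with compound 3 h, then stimulated 10 min with 10 ng/mL IL-6 or 1 ng/mL IL-4. Lysate pSTAT3 (pY705) or pSTAT6 (pY641) measured by MSD sandwich electrochemiluminescence. Signal minus unstimulated, normalized to DMSO; IC50 by variable-slope nonlinear regression.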

pSTAT6 (pY641-STAT6) = target: T2, pSTAT6 (pY641-STAT6) (Homo sapiens, UniProt P42226); assay: MSD-pSTAT-PBMC Assay (pSTAT6, IL-4 stimulated); format: cell-based; conditions: compound 3 hrs, then 1 ng/mL IL-4 for 10 min
T2 construct: host or cells: cryopreserved PBMC
T2 sequence (P42226 1-847): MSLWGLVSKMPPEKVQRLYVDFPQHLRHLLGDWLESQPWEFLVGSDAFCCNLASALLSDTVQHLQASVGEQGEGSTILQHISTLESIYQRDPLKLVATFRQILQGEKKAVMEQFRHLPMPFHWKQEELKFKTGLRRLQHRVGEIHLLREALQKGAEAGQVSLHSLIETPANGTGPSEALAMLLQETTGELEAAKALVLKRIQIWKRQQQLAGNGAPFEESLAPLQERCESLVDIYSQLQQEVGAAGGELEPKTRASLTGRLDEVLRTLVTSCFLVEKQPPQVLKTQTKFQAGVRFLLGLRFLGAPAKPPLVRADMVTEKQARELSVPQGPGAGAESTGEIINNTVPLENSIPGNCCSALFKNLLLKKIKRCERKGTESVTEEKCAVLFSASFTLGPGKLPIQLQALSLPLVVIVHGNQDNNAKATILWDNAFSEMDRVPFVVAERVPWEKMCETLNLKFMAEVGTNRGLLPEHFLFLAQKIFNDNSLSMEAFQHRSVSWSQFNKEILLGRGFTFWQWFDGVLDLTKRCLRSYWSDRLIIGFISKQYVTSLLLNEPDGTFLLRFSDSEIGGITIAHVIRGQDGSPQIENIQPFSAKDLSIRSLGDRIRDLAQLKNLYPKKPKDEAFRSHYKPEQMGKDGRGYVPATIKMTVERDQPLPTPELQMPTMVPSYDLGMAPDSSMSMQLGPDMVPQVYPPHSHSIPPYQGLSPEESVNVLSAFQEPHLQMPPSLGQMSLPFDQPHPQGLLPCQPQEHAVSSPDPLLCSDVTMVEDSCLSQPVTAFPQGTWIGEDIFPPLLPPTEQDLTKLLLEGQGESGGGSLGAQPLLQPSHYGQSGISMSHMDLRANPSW
How it was run: as §1

T1 sequence (P40763 whole entry): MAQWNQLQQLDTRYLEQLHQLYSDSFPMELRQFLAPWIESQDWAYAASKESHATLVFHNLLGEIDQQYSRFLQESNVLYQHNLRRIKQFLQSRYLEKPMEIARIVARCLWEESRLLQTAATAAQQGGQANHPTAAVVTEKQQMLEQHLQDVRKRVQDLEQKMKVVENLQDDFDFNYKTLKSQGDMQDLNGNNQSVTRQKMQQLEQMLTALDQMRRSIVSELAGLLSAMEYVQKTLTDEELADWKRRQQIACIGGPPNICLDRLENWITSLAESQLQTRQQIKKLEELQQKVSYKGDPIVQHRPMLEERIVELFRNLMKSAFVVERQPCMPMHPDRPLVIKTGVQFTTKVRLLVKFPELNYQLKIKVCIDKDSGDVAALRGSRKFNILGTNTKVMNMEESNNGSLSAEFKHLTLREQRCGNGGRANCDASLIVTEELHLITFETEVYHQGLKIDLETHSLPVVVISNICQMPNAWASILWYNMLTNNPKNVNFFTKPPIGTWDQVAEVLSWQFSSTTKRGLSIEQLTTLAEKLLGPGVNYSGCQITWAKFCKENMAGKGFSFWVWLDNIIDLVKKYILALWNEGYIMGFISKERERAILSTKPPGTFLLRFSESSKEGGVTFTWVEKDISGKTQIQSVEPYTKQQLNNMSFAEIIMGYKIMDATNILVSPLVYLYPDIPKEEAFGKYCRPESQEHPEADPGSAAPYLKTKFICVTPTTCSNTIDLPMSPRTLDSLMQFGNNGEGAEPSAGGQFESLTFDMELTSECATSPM

| Structure (SMILES) | IC50 (pSTAT3 (pY705-STAT3)) [nM] | IC50 (pSTAT6 (pY641-STAT6)) [nM] |
| --- | --- | --- |
| CC(C)(C)C(=O)OCOP(=O)(OCOC(=O)C(C)(C)C)C(F)(F)c1ccc2sc(C(=O)N[C@H]3C[C@H]4C[C@H]4C[C@H]4CC[C@@H](C(=O)N[C@@H]5CCN(c6cccnc6)C5)N4C3=O)cc2c1 [Compound 213, (((difluoro(2-(((3S,6S,7aR, 8aS,9aR)-5-oxo-3-(((R)-1-(pyridin-3-yl)pyrrolidin-3-yl)carbamoyl)decahydro-1H-cyclopropa[d]pyrrolo[1,2-a]azocin-6-yl)carbamoyl)benzo[b]thiophen-5-yl)methyl)phosphoryl)bis(oxy)) bis(methylene) bis(2,2-dimethyl-propanoate)] | 100 to 1000 | > 3000 |
| CC(C)CC(=O)SCCOP(=O)(OCCSC(=O)CC(C)C)C(F)(F)c1ccc2sc(C(=O)N[C@H]3C[C@H]4C[C@H]4C[C@H]4CC[C@@H](C(=O)N5CC(c6cncnc6)C5)N4C3=O)cc2c1 [Compound 222, S,S′-((((difluoro(2-(((3S,6S,7aR, 8aS,9aR)-5-oxo-3-(3-(pyrimidin-5-yl)azetidine-1-carbonyl)decahydro-1H-cyclopropa[d]pyrrolo[1,2-a]azocin-6-yl)carbamoyl)benzo[b]thiophen-5-yl)methyl)phosphoryl)bis(oxy))bis(ethane-2,1-diyl)) bis(3-methylbutane thioate)] | < 100 | > 3000 |
| CC(C)(C)C(=O)SCCOP(=O)(Cc1ccc2sc(C(=O)N[C@H]3C[C@H]4C[C@H]4C[C@H]4CC[C@@H](C(=O)N5CC(c6cccnc6)C5)N4C3=O)cc2c1)OCCSC(=O)C(C)(C)C [Compound 223, S,S′-(((((2-(((3S,6S,7aR, 8aS,9aR)-5-oxo-3-(3-(pyridin-3-yl)azetidine-1-carbonyl)decahydro-1H-cyclopropa[d]pyrrolo[1,2-a]azocin-6-yl)carbamoyl)benzo[b]thiophen-5-yl)methyl)phosphoryl)bis(oxy))bis(ethane-2,1-diyl)) bis(2,2-dimethyl-propanethioate)] | 100 to 1000 | > 3000 |
| CC(C)CC(=O)SCCOP(=O)(OCCSC(=O)CC(C)C)C(F)(F)c1ccc2sc(C(=O)N[C@H]3C[C@H]4C[C@H]4C[C@H]4CC[C@@H](C(=O)N[C@@H]5CCN(c6cccnc6)C5)N4C3=O)cc2c1 [Compound 224, S,S′-((((difluoro(2-(((3S,6S,7aR, 8aS,9aR)-5-oxo-3-(((R)-1-(pyridin-3-yl)pyrrolidin-3-yl)carbamoyl)decahydro-1H-cyclopropa[d]pyrrolo[1,2-a]azocin-6-yl)carbamoyl)benzo[b]thiophen-5-yl)methyl)phosphoryl)bis(oxy))bis(ethane-2,1-diyl)) bis(3-methylbutane thioate)] | < 100 | > 3000 |
| CC(C)CC(=O)SCCOP(=O)(OCCSC(=O)CC(C)C)C(F)(F)c1ccc2sc(C(=O)N[C@H]3C[C@H]4C[C@H]4C[C@H]4CC[C@@H](C(=O)N5CC(c6ncccn6)C5)N4C3=O)cc2c1 [Compound 225, S,S′-((((difluoro(2-(((3S,6S,7aR, 8aS,9aR)-5-oxo-3-(3-(pyrimidin-2-yl)azetidine-1-carbonyl)decahydro-1H-cyclopropa[d]pyrrolo[1,2-a]azocin-6-yl)carbamoyl)benzo[b]thiophen-5-yl)methyl)phosphoryl)bis(oxy))bis(ethane-2,1-diyl)) bis(3-methylbutane thioate)] | < 100 | 1000 to 3000 |
| CC(C)(C)C(=O)SCCOP(=O)(OCCSC(=O)C(C)(C)C)C(F)(F)c1ccc2sc(C(=O)N[C@H]3C[C@@H]4C[C@@H]4C[C@H]4CC[C@@H](C(=O)N5CC(F)(c6ccccc6)C5)N4C3=O)cc2c1 [Compound 228, S,S′-((((difluoro(2-(((3S,6S,7aS, 8aR,9aR)-3-(3-fluoro-3-phenylazetidine-1-carbonyl)-5-oxodecahydro-1H-cyclopropa[d]pyrrolo[1,2-a]azocin-6-yl)carbamoyl)benzo[b]thiophen-5-yl)methyl)phosphoryl)bis(oxy))bis(ethane-2,1-diyl)) bis(2,2-dimethyl-propanethioate)] | 100 to 1000 | > 3000 |

Further lines, results first:

| IC50 (pSTAT3 (pY705-STAT3)) [nM] | IC50 (pSTAT6 (pY641-STAT6)) [nM] | Structure (SMILES) |
| --- | --- | --- |
| < 100 | > 3000 | CC(C)(C)C(=O)OCOP(=O)(OCOC(=O)C(C)(C)C)C(F)(F)c1ccc2sc(C(=O)N[C@H]3C[C@@H]4C[C@@H]4C[C@H]4CC[C@@H](C(=O)N[C@@H]5CCN(c6cccnc6)C5)N4C3=O)cc2c1 [Compound 212, (((difluoro(2-(((3S,6S,7aS, 8aR,9aR)-5-oxo-3-(((R)-1-(pyridin-3-yl)pyrrolidin-3-yl)carbamoyl)decahydro-1H-cyclopropa[d]pyrrolo[1,2-a]azocin-6-yl)carbamoyl)benzo[b]thiophen-5-yl)methyl)phosphoryl)bis(oxy)) bis(methylene) bis(2,2-dimethyl-propanoate)] |
| < 100 | > 3000 | CC(C)(C)C(=O)OCOP(=O)(OCOC(=O)C(C)(C)C)C(F)(F)c1ccc2sc(C(=O)N[C@H]3C[C@H]4C[C@H]4C[C@H]4CC[C@@H](C(=O)N5CC(n6ccnc6)C5)N4C3=O)cc2c1 [Compound 214, ((((2-(((3S,6S,7aR, 8aS,9aR)-3-(3-(1H-imidazol-1-yl)azetidine-1-carbonyl)-5-oxodecahydro-1H-cyclopropa[d]pyrrolo[1,2-a]azocin-6-yl)carbamoyl)benzo[b]thiophen-5-yl)difluoromethyl)phosphoryl)bis(oxy)) bis(methylene) bis(2,2-dimethyl-propanoate)] |
| < 100 | 100 to 1000 | CC(C)(C)C(=O)OCOP(=O)(OCOC(=O)C(C)(C)C)C(F)(F)c1ccc2sc(C(=O)N[C@H]3C[C@H]4C[C@H]4C[C@H]4CC[C@@H](C(=O)NC5CN(C(=O)CCC(F)(F)F)C5)N4C3=O)cc2c1 [Compound 215, (((difluoro(2-(((3S,6S,7aR, 8aS,9aR)-5-oxo-3-((1-(4,4,4-trifluoro-butanoyl)azetidin-3-yl)carbamoyl)decahydro-1H-cyclopropa[d]pyrrolo[1,2-a]azocin-6-yl)carbamoyl)benzo[b]thiophen-5-yl)methyl)phosphoryl)bis(oxy)) bis(methylene) bis(2,2-dimethyl-propanoate)] |
| < 100 | > 3000 | CC(C)(C)C(=O)SCCOP(=O)(OCCSC(=O)C(C)(C)C)C(F)(F)c1ccc2sc(C(=O)N[C@H]3C[C@H]4C[C@H]4C[C@H]4CC[C@@H](C(=O)N5CC(c6ccccn6)C5)N4C3=O)cc2c1 [Compound 218, S,S′-((((difluoro(2-(((3S,6S,7aR, 8aS,9aR)-5-oxo-3-(3-(pyridin-2-yl)azetidine-1-carbonyl)decahydro-1H-cyclopropa[d]pyrrolo[1,2-a]azocin-6-yl)carbamoyl)benzo [b]thiophen-5-yl)methyl)phosphoryl)bis(oxy))bis(ethane-2,1-diyl)) bis(2,2-dimethyl-propanethioate)] |
| < 100 | 100 to 1000 | CC(C)(C)C(=O)SCCOP(=O)(OCCSC(=O)C(C)(C)C)C(F)(F)c1ccc2sc(C(=O)N[C@H]3C[C@H]4C[C@H]4C[C@H]4CC[C@@H](C(=O)N5CC(c6c[nH]cn6)C5)N4C3=O)cc2c1 [Compound 219, S,S′-(((((2-(((3S,6S,7aR, 8aS,9aR)-3-(3-(1H-imidazol-4-yl)azetidine-1-carbonyl)-5-oxodecahydro-1H-cyclopropa[d]pyrrolo[1,2-a]azocin-6-yl)carbamoyl)benzo[b]thiophen-5-yl)difluoromethyl)phosphoryl)bis(oxy))bis(ethane-2,1-diyl)) bis(2,2-dimethyl-propanethioate)] |
| < 100 | > 3000 | CC(C)(C)C(=O)SCCOP(=O)(OCCSC(=O)C(C)(C)C)C(F)(F)c1ccc2sc(C(=O)N[C@H]3C[C@H]4C[C@H]4C[C@H]4CC[C@@H](C(=O)N5CCN(C6CCOCC6)CC5)N4C3=O)cc2c1 [Compound 220, S,S′-((((difluoro(2-(((3S,6S,7aR, 8aS,9aR)-5-oxo-3-(4-(tetrahydro-2H-pyran-4-yl)piperazine-1-carbonyl)decahydro-1H-cyclopropa[d]pyrrolo[1,2-a]azocin-6-yl)carbamoyl)benzo[b]thiophen-5-yl)methyl)phosphoryl)bis(oxy))bis(ethane-2,1-diyl)) bis(2,2-dimethyl-propanethioate)] |

Source: patent US20250215030A1, “STAT MODULATORS AND USES THEREOF” (Recludix Pharma, Inc., priority 2022, published 2025)
